What all share (type): functional, cell-based
Experiment [1] can be described thus: Cytotoxicity against human Saos2 cells […] after 48 hrs by crystal violet-staining based spectrophotometric assay. The settings on record: SAOS-2, 48 h.
Experiment [2] has as its system U2OS. Put plainly: Cytotoxicity against human U2OS cells expressing wild-type p53 after 24 hrs by crystal violet-staining based spectrophotometric assay.
Experiment [3] concerns U2OS. Description: Cytotoxicity against human U2OS cells expressing wild-type p53 after 48 hrs by crystal violet-staining based spectrophotometric assay.
Experiment [4] is described as follows: Cytotoxicity against human Saos2 cells […] after 24 hrs by crystal violet-staining based spectrophotometric assay. The following applies: SAOS-2, 24 h.

Bounds are passed on as bounds.

A word on the EC50: it is the midpoint of the concentration-response curve. Read a low EC50 as an effect from little substance. As to `COc1cc(/C=C/C(=O)CC(=O)/C=C/c2ccc(O)c(OC)c2)ccc1O` [CURCUMIN], the EC50 in experiment [1] was 28.1 µM; with U2OS [2], 34.4 µM; with U2OS [3], 22.8 µM; in experiment [4] it was 48.6 µM.

Turning to `C[C@H]1OC(Oc2c(-c3ccc(O)c(O)c3)oc3cc(O)cc(O)c3c2=O)[C@@H](O)[C@@H](O)[C@@H]1O` (stereo partly drawn), the EC50 (in experiment [1]; with U2OS [2]; in the experiment on U2OS [3]; in experiment [4]) was above 150 µM in each case.

As for `C[C@H]1OC(Oc2c(-c3ccc(O)cc3)oc3cc(O)cc(O)c3c2=O)[C@@H](O)[C@@H](O)[C@@H]1O` (stereo partly drawn), the half-maximal effective concentration (EC50) (in experiment [1]; in the experiment on U2OS [2]; in the experiment with U2OS [3]; in experiment [4]) was above 150 µM throughout.

Regarding `Oc1ccc2cc1-c1cc(ccc1O)C[C@H](O)[C@H](O)C(O)[C@@H](O)[C@H](O)C2` (stereo partly drawn), the 50% effective concentration (EC50) (in experiment [1]; in the experiment on U2OS [2]; in the experiment on U2OS [3]; in experiment [4]) was above 150 µM throughout.

For the molecule `COc1c2cc(c(OC)c1O)Oc1ccc(cc1)[C@@H](O)C[C@@H](O)CC/C=C\2`, the concentration giving a half-maximal response (EC50) (in experiment [1]; in the experiment on U2OS [2]; with U2OS [3]; in experiment [4]) was above 150 µM each time.

On to `O=C1C[C@@H](O)Cc2ccc(O)c(c2)-c2cc(ccc2O)C[C@H](O)[C@H]1O`, for which the EC50 (in experiment [1]; in the experiment with U2OS [2]; in the experiment on U2OS [3]; in experiment [4]) was above 150 µM in each case.

Take `COc1c2cc(c(OC)c1O)Oc1ccc(cc1)[C@@H](O)C[C@@H](O)/C=C/C=C\2`: the EC50 (in experiment [1]; in the experiment on U2OS [2]; in the experiment on U2OS [3]; in experiment [4]) was above 150 µM each time.

As for `O=C1CCc2ccc(O)c(c2)-c2cc(ccc2O)C[C@H](O)C[C@H]1O`, the EC50 (in experiment [1]; in the experiment with U2OS [2]; with U2OS [3]; in experiment [4]) was above 150 µM in each case.

Regarding `O=C1CCc2ccc(O)c(c2)-c2cc(ccc2O)C[C@H](O[C@@H]2O[C@H](CO)[C@H](O)[C@@H](O)[C@H]2O)C[C@H]1O`, the concentration giving a half-maximal response (EC50) (in experiment [1]; in the experiment on U2OS [2]; in the experiment on U2OS [3]; in experiment [4]) was above 150 µM each time.

For the molecule `Oc1ccc2cc1-c1cc(ccc1O)C[C@H](O)[C@@H](O)[C@@H](O)C[C@@H](O)C2`, the concentration giving a half-maximal response (EC50) (in experiment [1]; in the experiment on U2OS [2]; in the experiment on U2OS [3]; in experiment [4]) was above 150 µM in each case.

Regarding `C[C@H]1OC(Oc2c(-c3ccc(O)cc3)oc3cc(O)cc(O)c3c2=O)[C@@H](O)[C@@H](O)[C@@H]1OC(=O)/C=C/c1ccc(O)cc1` (stereo partly drawn), the EC50 (in experiment [1]; in the experiment with U2OS [2]; with U2OS [3]; in experiment [4]) was above 150 µM in each case.

On to `C[C@H]1OC(Oc2c(-c3cc(O)c(O)c(O)c3)oc3cc(O)cc(O)c3c2=O)[C@@H](O)[C@@H](O)[C@@H]1O` (stereo partly drawn), for which the EC50 (in experiment [1]; in the experiment on U2OS [2]; in the experiment on U2OS [3]; in experiment [4]) was above 150 µM in each case.
